# How the values were obtained:
# Akt = assay: Western blot of left ventricle: phosphorylated Akt to total Akt; type: in vivo, mice
# Experimental: Experimental model of IHD: Transient left coronary artery ligation in vivo. Mice were subjected to a transient LCAL surgery as described before, with minor modifications [Tarnayski et al., 2004]. Mice were injected i.p. with buprenorphine (0.05 mg/kg) and placed in an induction chamber with inhalation anesthesia comprised of 3% isoflurane mixed with 100% oxygen. Mice were intubated with a blunt ended 20-gauge catheter into the trachea via the mouth and mechanically ventilated at a tidal volume of 7 ml/kg at 130 respirations/min with a MiniVent™ mouse ventilator (model 845, Harvard Apparatus, Saint-Laurent, QC, Canada). Anesthesia was maintained with 1.5-2% isoflurane and the animals were kept warm using electrical heating pads during the surgical procedure. The chest was opened by a horizontal incision through the skin and muscle layers at the third intercostal space exposing the left side of the heart. […] Visual blanching distal to the coronary occlusion confirmed myocardial ischaemia. Lidocaine (6 mg/kg) was administered i.p. just following occlusion and prior to reperfusion. After 30 minutes, the PE10 tubing was removed allowing reperfusion. The lungs were reinflated and the chest wound closed layer by layer before extubation. […] Hearts were immediately frozen at −80° C. unless otherwise stated.
# Western blot analysis. Total ventricular protein lysates were prepared as described previously [Bodart et al., 2002]. Left ventricles were homogenized in PBS containing a protease inhibitor cocktail (Roche Applied Science, Indianapolis, Ind., USA) and 1 mM sodium orthovanadate. Homogenates were incubated for 10 min on ice with an equal volume of lysis buffer (NaCl 300 mM, Tris-HCl 100 mM, 2% Triton X-100, 0.2% SDS, 50 mM NaF, 4 mM EDTA, 1 mM sodium orthovanadate and protein inhibitors, pH=7.5), and centrifuged at 14,000 g for 30 minutes at 4° C. The protein concentration of the su pernatant was determined by the bicinchoninic acid (BCA) protein assay (Pierce Biotechnology, Rockford, Ill., USA). Equal amounts (50 or 100 μg) of protein extracts were separated on 10% SDS-polyacrylamide gels and transferred electrophoretically to polyvinylidene difluoride (PVDF) membranes (Bio-Rad Laboratories, Hercules, Calif., USA) for immunoblotting. […] Antibody binding was detected by enhanced chemiluminescence using an alpha Imager™ (Alpha Innotech Corporation, San Leandro, Calif., USA). Quantification of the digital images obtained was performed using ImageQuant™ 5.2 software (Molecular Dynamics, Sunnyvale, Calif., USA).
# [1] = test system: circulating blood leukocytes; assay: Opsonized zymosan-stimulated luminol-enhanced whole blood chemiluminescence; type: in vivo; conditions: 48 hours reperfusion; CD36^+/+ mice; 10-week pretreatment; p<0.05
# Experimental: Experimental model of IHD: Transient left coronary artery ligation in vivo. Mice were subjected to a transient LCAL surgery as described before, with minor modifications [Tarnayski et al., 2004]. Mice were injected i.p. with buprenorphine (0.05 mg/kg) and placed in an induction chamber with inhalation anesthesia comprised of 3% isoflurane mixed with 100% oxygen. Mice were intubated with a blunt ended 20-gauge catheter into the trachea via the mouth and mechanically ventilated at a tidal volume of 7 ml/kg at 130 respirations/min with a MiniVent™ mouse ventilator (model 845, Harvard Apparatus, Saint-Laurent, QC, Canada). Anesthesia was maintained with 1.5-2% isoflurane and the animals were kept warm using electrical heating pads during the surgical procedure. The chest was opened by a horizontal incision through the skin and muscle layers at the third intercostal space exposing the left side of the heart. […] Visual blanching distal to the coronary occlusion confirmed myocardial ischaemia. Lidocaine (6 mg/kg) was administered i.p. just following occlusion and prior to reperfusion. After 30 minutes, the PE10 tubing was removed allowing reperfusion. […]
# Whole blood chemiluminescence. […] The chemiluminescence signals were recorded using a computer-assisted luminometer (model 500; Chronolog Corp, Havertown, Pa., USA). Chemiluminescence intensities were measured as the peak amplitude in arbitrary units.
substance,measurement,setting,value
HAIC-2MeDTrp-DLys-Trp-DPhe-Lys-NH2 [EP 80317],increase of P-Akt to total Akt band density ratio,"Akt; 6 hours reperfusion, CD36^+/+ mice, p<0.01",57%
same,effect on P-Akt/Akt ratio,"Akt; 6 hours reperfusion, CD36^−/− mice, in words",no effect
same,increase of P-Akt/Akt density ratio,"Akt; 48 hours reperfusion, CD36^+/+ mice, p<0.01",89%
same,effect on Akt phosphoprotein signal,"Akt; 48 hours reperfusion, genotype not printed in the sentence (FIG. 7D), in words",no significant effect
same,reduction of circulating blood leukocyte priming and/or activation,[1],53%

# From patent publication US20100279941A1, “CD36 MODULATION AND USES THEREOF” (priority 2009, published 2010)
